Test results: patent US6492330B1, “Antiangiogenic drugs” (National Institute of Immunology, priority 1996, dated 2002)
Positions of bridges follow the written chain, without caps; N, C: chain ends. Non-standard residues stand in square brackets, D forms with d. No end group written: not given here. Deg = CCC(N)(CC)C(=O)O; Aib = CC(C)(N)C(=O)O

Tests used:
Assay type in all cases: cell-based
[1] = system: endothelial cells ECV.304; experiment: Migration assay across 8 μm polycarbonate filter transwell inserts; settings: 24 hours (Table 4)
Protocol: Polycarbonate filter transwell inserts (24 well size) with 8 μm pores (Nunc, Denmark) were used for the migration assay. ECV304 (10^4 cells/200 ul DMEM containing 0.1% BSA) was added to the upper chamber. The lower chamber contained 600 ul of DMEM with 0.1% BSA. Individual peptides of the composition MuJ-7 at six different concentrations each of N/100, N/10, N, 10N, 100N and 1000N were added directly to the upper well and the plate incubated at 37° C. for 24 hours. The cells migrated to the lower chamber were viewed randomly at five different phase-contrast microscopic fields and the total number of cells counted using Video Pro 32 Image Analysis system. Percent inhibition in migration was determined with reference to the Control. Similarly, […] different concentrations of N/100, N/10, N, 10N, 100N and 1000N of MuJ-7 were added directly to the upper well and the plate incubated at 37° C. for 24 hours. The cells migrated to the lower chamber were counted as described above.
Polycarbonate filter trasnwell inserts (24 well size) with 8 μm pores (Nuno, Denmark) were used for the migration assay. ECV304 (10^4 cells/200 ul DMEM containing 0.1% BSA) was added to the upper chamber. The lower chamber contained 600 ul of DMEM with 0.1% BSA. […] The sequence of each of the peptides added are described above. The cells migrated to the lower chamber were viewed randomly at five different phase-contrast microscopic fields and the total number of cells counted using Video Pro 32 Image Analysis system. Percent inhibition in migration was determined with reference to Control. […]

ECV304 = experiment: Tube-like-structure (TLS) formation on Matrigel; settings: 24 hours
Protocol: Matrigel (350 ul) was placed into each well of a 24-well culture plate at 4° C. and was allowed to polymerize by incubation at 37° C. for 30 min. ECV304 (1.5×10^4) were seeded on the Matrigel in 500 ul DMEM supplemented with 10% FBS. MuJ-7 at four different concentrations of 0.25×, 0.5×, ×, & 5.0× were added and. the plate incubated at 37° C. for 24 hour. “×” denotes normal concentration of MuJ-7 where molar concentration of individual peptides was 10^−8 M for VIP2, BOM1, SP1, VIP3 and SOM2 and 10^−7 M for VIP1 and 10^−9 M for SOM1. […] Percent inhibition in tube area was determined with reference to untreated cells.
Matrigel (350 ul) was placed into each well of a 24-well culture plate at 4° C. and was allowed to polymerize by incubation at 37° C. for 30 min. ECV304 (1.5×10^4) were seeded on the Matrigel in 500 ul DMEM supplemented with 10% FBS. […] Percent inhibition in tube length was determined with reference to untreated cells.
Matrigel (350 ul) was placed into each well of a 24-well culture plate at 4° C. and was allowed to polymerize by incubation at 37° C. for 30 min. ECV304 (1.5×10^4) were seeded on the Matrigel in 500 ul DMEM supplemented with 10% FBS. Individual peptides of the composition MuJ-7 at three different concentrations each of N/10, N, and 10N were added and the plate incubated at 37° C. for 24 hours. […] Percent inhibition in tube length was determined with reference to Control. Similarly, three different concentrations of N/10, N, and 10N of MuJ-7 were added to the well and the plate incubated at 37° C. for 24 hours. Percent inhibition in tube length was determined with reference to Control as described previously (Table 10).

ECV.304 cells = experiment: MTT assay, inhibition of proliferation of endothelial cells ECV.304; settings: 72 hours (Table 2)
Protocol: 150 μl of medium was added to the wells of a 96-well tissue culture plate (Nunc, Denmark) followed by 30 μl of cell suspension. The plate was left in incubator (37° C., 5% CO2) overnight. Each of the seven peptides of the combination MuJ-7 were added at three molar concentrations of 10^−7M, 10^−8M and 10^−9M. 20 μl of MuJ-7 at three concentrations of N/10, N and 10N was added to marked wells of the 96-well plate. The value of N for each of the individual peptides was 10^−8M for VIP2, BOM1, SP1, VIP3, and SOM2 and 10^−7M for VIP1, and 10^−9M for SOM1. Each concentration was plated in triplicate. 20 μl of medium alone was added to control wells while wells without cells served as blanks. A total volume of 200 μl was ensured in each well and the plate was left in an incubator (37° C., 5% CO2). After 72 hours of incubation an MTT assay was performed and percentage inhibition in proliferation of treated cells was calculated with respect to control cells.
150 μl of medium was added to the wells of a 96-well tissue culture plate (Nunc, Denmark) followed by 30 μl of cell suspension. The plate was left in incubator (37° C., 5% CO2) overnight. Novel peptides shown below were incubated with cells at concentration range of 10^−7 to 10^−9 M (except DT71 at concentration range 10^−8 to 10^−10 M). Each concentration was plated in triplicates. 20 μl of medium alone was added to control wells while wells without cells served as blanks. A total volume of 200 μl was ensured in each well and plate was left in incubator (37° C., 5% CO2). After 72 hours of incubation an MTT assay was performed and percentage inhibition in proliferation of treated cells was calculated with respect to control cells.

[2] = analog at optimum concentration −8M

Row | Substance | PERCENT INHIBITION MIGRATION [1, 2] [%] | INHIBITION OF TUBE LENGTH (ECV304; peptide −8M) [%] | PERCENT INHIBITION OF PROLIFERATION (ECV.304 cells; ECV304, 10^−7M) [%] | PERCENT INHIBITION OF PROLIFERATION (ECV.304 cells; ECV304, 10^−8M) [%] | PERCENT INHIBITION OF PROLIFERATION (ECV.304 cells; ECV304, 10^−9M) [%] | PERCENT INHIBITION MIGRATION ([1]; analog at optimum concentration −9M) [%] | INHIBITION OF TUBE LENGTH (ECV304; peptide −9M) [%] | PERCENT INHIBITION OF PROLIFERATION (ECV.304 cells; ECV304, 10^−10M) [%]
1 | Aib-Met-Gln-Trp-Phe-Aib-NH2 ([Aib]MQWF[Aib]-NH2; N-terminus assumed; SMILES CSCC[C@H](NC(=O)C(C)(C)N)C(=O)N[C@@H](CCC(N)=O)C(=O)N[C@@H](Cc1c[nH]c2ccccc12)C(=O)N[C@@H](Cc1ccccc1)C(=O)NC(C)(C)C(N)=O) [DT-31] | 0 | 17.1 | 1.3 | 14.1 | 6.1 | – | – | –
2 | Aib-Met-Tyr-Pro-Thr-Tyr-Aib-Lys-OH ([Aib]MYPTY[Aib]K-OH; N-terminus assumed; SMILES CSCC[C@H](NC(=O)C(C)(C)N)C(=O)N[C@@H](Cc1ccc(O)cc1)C(=O)N1CCC[C@H]1C(=O)N[C@H](C(=O)N[C@@H](Cc1ccc(O)cc1)C(=O)NC(C)(C)C(=O)N[C@@H](CCCCN)C(=O)O)[C@@H](C)O) [DT-11] | 82.5 | 3.6 | 16.7 | 18.7 | 19.9 | – | – | –
3 | Aib-Met-Tyr-Pro-Thr-Tyr-Deg-Lys-OH ([Aib]MYPTY[Deg]K-OH; N-terminus assumed; SMILES CCC(CC)(NC(=O)[C@H](Cc1ccc(O)cc1)NC(=O)[C@@H](NC(=O)[C@@H]1CCCN1C(=O)[C@H](Cc1ccc(O)cc1)NC(=O)[C@H](CCSC)NC(=O)C(C)(C)N)[C@@H](C)O)C(=O)N[C@@H](CCCCN)C(=O)O) [DT-18] | 73.2 | 0 | 23.3 | 10.9 | 14.4 | – | – | –
4 | Ala-Aib-Cys-Lys-Asn-Phe-Phe-D-Trp-Lys-Thr-Phe-Thr-Ser-Cys (3-14 Disulphide bond) (A[Aib]CKNFF[dW]KTFTSC; disulfide 3-14) [DT-62A] | 62.2 | 44.1 | 11.7 | 20.1 | 25.7 | – | – | –
5 | Ala-Aib-Cys-Lys-Asn-Phe-Phe-D-Trp-Lys-Thr-Phe-Thr-Ser-Cys (A[Aib]CKNFF[dW]KTFTSC; ends and bridges not checked) [DT-62B] | 8.5 | 0 | 14.0 | 3.8 | 12.8 | – | – | –
6 | D-Leu-Met-Tyr-Pro-Thr-Tyr-Aib-Lys-OH ([dL]MYPTY[Aib]K-OH; N-terminus assumed; SMILES CSCC[C@H](NC(=O)[C@H](N)CC(C)C)C(=O)N[C@@H](Cc1ccc(O)cc1)C(=O)N1CCC[C@H]1C(=O)N[C@H](C(=O)N[C@@H](Cc1ccc(O)cc1)C(=O)NC(C)(C)C(=O)N[C@@H](CCCCN)C(=O)O)[C@@H](C)O) [DT-12] | 58.7 | 17.1 | 20.3 | 16.1 | 15.5 | – | – | –
7 | D-Leu-Met-Tyr-Pro-Thr-Tyr-D-Leu-Lys-OH ([dL]MYPTY[dL]K-OH; N-terminus assumed; SMILES CSCC[C@H](NC(=O)[C@H](N)CC(C)C)C(=O)N[C@@H](Cc1ccc(O)cc1)C(=O)N1CCC[C@H]1C(=O)N[C@H](C(=O)N[C@@H](Cc1ccc(O)cc1)C(=O)N[C@H](CC(C)C)C(=O)N[C@@H](CCCCN)C(=O)O)[C@@H](C)O) [DT-16] | 90.07 | 18.9 | 24.0 | 24.7 | 37.9 | – | – | –
8 | D-Leu-Met-Tyr-Pro-Thr-Tyr-Deg-Lys-OH ([dL]MYPTY[Deg]K-OH; N-terminus assumed; SMILES CCC(CC)(NC(=O)[C@H](Cc1ccc(O)cc1)NC(=O)[C@@H](NC(=O)[C@@H]1CCCN1C(=O)[C@H](Cc1ccc(O)cc1)NC(=O)[C@H](CCSC)NC(=O)[C@H](N)CC(C)C)[C@@H](C)O)C(=O)N[C@@H](CCCCN)C(=O)O) [DT-19] | 80.4 | 37.8 | 11.9 | 7.3 | 21.0 | – | – | –
9 | D-Phe-Cys-Tyr-D-Trp-Lys-Thr-Aib-Thr-NH2 (XCYXKTXT; D-amino acids, Aib, C-terminal amide) [DT-71] | – | – | – | 14.6 | 12.1 | 68.2 | 9.9 | 9.4
10 | D-Phe-Gln-Trp-Aib-Val-Gly-His-Ile-NH2 ([dF]QW[Aib]VGHI-NH2; N-terminus assumed; SMILES CC[C@H](C)[C@H](NC(=O)[C@H](Cc1c[nH]cn1)NC(=O)CNC(=O)[C@@H](NC(=O)C(C)(C)NC(=O)[C@H](Cc1c[nH]c2ccccc12)NC(=O)[C@H](CCC(N)=O)NC(=O)[C@H](N)Cc1ccccc1)C(C)C)C(N)=O) [DT-26] | 0 | 0 | 0 | 0 | 0 | – | – | –
11 | LM[dY]PTY[dL]K-OH [DT-15] | 73.2 | 0 | 20.4 | 13.2 | 20.0 | – | – | –
12 | Leu-Met-Tyr-Pro-Thr-D-Tyr-Leu-Lys-OH (LMYPT[dY]LK-OH; N-terminus assumed; SMILES CSCC[C@H](NC(=O)[C@@H](N)CC(C)C)C(=O)N[C@@H](Cc1ccc(O)cc1)C(=O)N1CCC[C@H]1C(=O)N[C@H](C(=O)N[C@H](Cc1ccc(O)cc1)C(=O)N[C@@H](CC(C)C)C(=O)N[C@@H](CCCCN)C(=O)O)[C@@H](C)O) [DT-13] | 89.7 | 16.2 | 22.6 | 20.3 | 18.4 | – | – | –
